# Source: patent publication US12686657B2, “Anti-inflammatory carboxamide derivatives” (BIOMEDCODE HELLAS SA, priority 2021, dated 2026)
# What was measured:
# Assay type in all cases: cell-based, mice
# hTNFtg SFs = test: Legendplex pro-inflammatory chemokine panel on hTNFTg synovial fibroblasts
# Protocol: SFs were isolated as previously described by Armaka et al., 2009, from the ankle joints of hTNFtg or CBA/C57BL6 wild type (wt) littermates. Briefly, ankle joints were digested with Collagenase IV (Sigma Aldrich, C5138) for 45 minutes at a 37° C. shaking waterbath and after 5 days in culture at 37° C. and 5% CO2, a depletion of CD45+ lineage cells was performed using a Biotin anti-mouse CD45 Antibody (Biolegend, 103104) and Dynabeads™ Biotin Binder (ThermoFisher 11047), according to the manufacturer's protocol. After 10 days in culture, SFs were seeded overnight (O/N) at a concentration of 2×10^4 cells/well in a 96 well plate in 1×DMEM, supplemented with 100 U/ml Penicillin Streptomycin (P/S) and 10% Fetal Bovine Serum (FBS). The next day the cells were synchronized by starvation that included their O/N plating in low serum medium (0.5% FBS). Following the O/N starvation, the hTNFg and the WT SFs were treated with different concentrations of the experimental compounds. The SFs were at the same time activated with 10 ng/ml hTNF (Peprotech, 300-01A). 48 h following the treatment the cell culture supernatants were collected and analyzed by ELISA (R&S Systems, Duoset, DY478 and DY760) according to the manufacturer's protocol, for the detection of CCL5/Rantes and CCL20/Mip3, two known inflammatory chemokines. The IC50 values were determined as the concentration of the compounds required to reduce the levels of secreted CCL5 and CCL20 by 50%.
# The supernatants of the SFs were also analyzed using the Mouse pro-inflammatory chemokine panel from Legendplex™ (Biolegend, 740007), according to manufacturer's instructions, for the simultaneous detection of 13 Mouse chemokines.
# The anti-inflammatory potential of the test compounds 51, 52, 53, E and F on SFs was also assessed using the Mouse pro-inflammatory chemokine panel from Legendplex that allows the simultaneous detection of 13 Mouse chemokines. The effect of compound 51 on SFs was assessed at a dose of 25 μM, while the effect of the test compounds 52, 53, E and F was assessed at a dose of 10 μM. Numbers represent percentages of the chemokine levels secreted from the treated SFs compared to 100% levels of the chemokines detected in the untreated cells (i.e. either hTNFTg SFs or hTNF-activated wt SFs).
# Table 9 summarizes the effect of the test compounds 51, 52 and 53, E and F on the inflammatory chemokines secreted from activated SFs. WT SFs were stimulated with 10 ng/ml hTNF.
# [1] = tested on: LPS activated thioglyclolate peritoneal macrophages; test: Cytokines and chemokines secreted from LPS activated thioglycolate peritoneal macrophages (Legendplex panels); conditions: for GMCSF level, percentage of untreated control cells / IL1α level, percentage of untreated control cells / IL6 level, percentage of untreated control cells / IL12p70 level, percentage of untreated control cells / IL27 level, percentage of untreated control cells / MCP1 level, percentage of untreated control cells / MIP1β level, percentage of untreated control cells / CCL5 level, percentage of untreated control cells / MDC level, percentage of untreated control cells / MIP1α level, percentage of untreated control cells: 10 μM compound, 48 h; for IC50: Mus musculus, Peritoneal macrophage, read-out: IL6 IC50
# Protocol: Activated peritoneal macrophages were isolated from the peritoneal lavage of C57BL/6 wild type mice, 5 days after the peritoneal administration of 3% Thioglucolate, as described in Jiménez-García et al., 2015. The isolated cells were seeded at a concentration of 5×10^5 cells/well in a 48 well plate. 4 h after isolation, cells were starved O/N in Optimem (Gibco, 11058, 100 U/ml P/S). The cells were further activated with 100 ng/ml Lipopolysaccharide (LPS, Sigma-Aldrich, L2630) along with the test compounds at a dose of 10 μM. 48 h later the supernatants of the cell cultures were collected and analyzed using the Mouse 13 plex Legendplex Chemokine (Biolegend, 740007) and Cytokine (Bioloegend, 740446) panels according the manufacturer's instructions.
# The same protocol was repeated reducing the concentration of LPS to 10 ng/ml in order to determine the efficiency of the tested compounds.
# In order to assess the anti-inflammatory activity of the compounds of the invention, their ability to reduce the levels of secreted cytokines and chemokines from activated macrophages, which are key inflammatory cells of the immune system, was measured. Test compounds 51, 52 and 53, E and F were tested at a dose of 10 μM on LPS induced thioglycolate derived peritoneal macrophages. Chemokine and cytokine analyses were performed using the Mouse pro-inflammatory panels from Legendplex and their levels are presented as a percentage of the levels detected in the untreated control cells (Tables 6a and 6b). Data presented for compounds 51, 52, 53 refer to LPS stimulation of 100 ng/ml, while compounds E and F were tested upon LPS stimulation of 10 ng/ml.
# SFs and PMCs = test: Compound cytotoxicity, Crystal Violet assay
# Protocol: The toxicity of the test compounds was assessed at several concentrations using the Crystal Violet assay on both SFs and PMCs. Adherent viable cells were Methanol fixed and stained with Crystal Violet. Optical density was quantified at […], as described in Feoktistova et al., 2016.
Compound,"GMCSF level, percentage of untreated control cells ([1]; LPS 100 ng/ml) [%]","IL1α level, percentage of untreated control cells ([1]; LPS 100 ng/ml) [%]","IL6 level, percentage of untreated control cells ([1]; LPS 100 ng/ml) [%]","IL12p70 level, percentage of untreated control cells ([1]; LPS 100 ng/ml) [%]","IL27 level, percentage of untreated control cells ([1]; LPS 100 ng/ml) [%]","MCP1 level, percentage of untreated control cells ([1]; LPS 100 ng/ml) [%]","MIP1β level, percentage of untreated control cells ([1]; LPS 100 ng/ml) [%]",Cell Toxicity (SFs and PMCs) [µM],"EOTAXIN hTNFTg, percentage of level in untreated cells (hTNFtg SFs; compound 10 μM) [%]","KC hTNFTg, percentage of level in untreated cells (hTNFtg SFs; compound 10 μM) [%]","LIX hTNFTg, percentage of level in untreated cells (hTNFtg SFs; compound 10 μM) [%]","MCP1 hTNFTg, percentage of level in untreated cells (hTNFtg SFs; compound 10 μM) [%]","MIP1β hTNFTg, percentage of level in untreated cells (hTNFtg SFs; compound 10 μM) [%]","CCL5 level, percentage of untreated control cells ([1]; LPS 10 ng/ml) [%]","IL6 level, percentage of untreated control cells ([1]; LPS 10 ng/ml) [%]","MCP1 level, percentage of untreated control cells ([1]; LPS 10 ng/ml) [%]","MDC level, percentage of untreated control cells ([1]; LPS 10 ng/ml) [%]","MIP1α level, percentage of untreated control cells ([1]; LPS 10 ng/ml) [%]","MIP1β level, percentage of untreated control cells ([1]; LPS 10 ng/ml) [%]",IC50 ([1]; LPS 10 ng/ml) [nM],also measured
"COc1cc(N)c(Cl)cc1C(=O)NCC1(c2ccc(Cl)cc2)CCCCC1 [Compound 51, 4-amino-5-chloro-N-((1-(4-chlorophenyl)cyclohexyl)methyl)-2-methoxybenzamide]",80,36,44,54,77,27,90,>100,–,–,–,–,–,–,–,–,–,–,–,–,"EOTAXIN hTNFTg, percentage of level in untreated cells (hTNFtg SFs; compound 25 μM): 24%; KC hTNFTg, percentage of level in untreated cells (hTNFtg SFs; compound 25 μM): 80%; LIX hTNFTg, percentage of level in untreated cells (hTNFtg SFs; compound 25 μM): 22%; MCP1 hTNFTg, percentage of level in untreated cells (hTNFtg SFs; compound 25 μM): 89%"
"COc1cc(N)c(Cl)cc1C(=O)NCC1(c2ccc(Cl)cc2)CCCCCC1 [Compound 52, 4-amino-5-chloro-N-((1-(4-chlorophenyl)cycloheptyl)methyl)-2-methoxybenzamide]",36,9,7,23,19,28,51,>200,6,49,48,55,–,–,–,–,–,–,–,–,–
"COc1cc(N)c(Cl)cc1C(=O)NCC1(Nc2ccc(Cl)cc2)CCCCCC1 [Compound 53, 4-amino-5-chloro-N-((1-((4-chlorophenyl)amino)cycloheptyl)methyl)-2-methoxybenzamide]",38,30,15,18,75,75,67,>100,9,49,40,49.5,33,–,–,–,–,–,–,–,"CCL5 level, percentage of untreated control cells ([1]; LPS 100 ng/ml): 22%; MDC level, percentage of untreated control cells ([1]; LPS 100 ng/ml): 52%; MIP1α level, percentage of untreated control cells ([1]; LPS 100 ng/ml): 60%"
"COc1cc(N)c(Cl)cc1C(=O)NCC1(Nc2ccc(F)cc2Cl)CCCCCC1 [E, 4-amino-5-chloro-N-((1-((2-chloro-4-fluorophenyl)amino)cycloheptyl)methyl)-2-methoxybenzamide]",–,–,–,–,–,–,–,>150,2.5,32,19.5,25.5,24,8,8.8,9.3,54,50,41,570,–
"COc1cc(N)c(Cl)cc1C(=O)NCC1(Nc2cccc(OC(F)(F)F)c2)CCCCCC1 [F, 4-amino-5-chloro-2-methoxy-N-((1-((3-(trifluoromethoxy)phenyl)amino)cycloheptyl)methyl)benzamide]",–,–,–,–,–,–,–,>25,0,35,1,13.5,12.5,2,5.3,9,47,45,26,2670,–
